Data: publication PMC3739823, “Structural Guided Scaffold Phage Display Libraries as a Source of Bio-Therapeutics” (PLoS ONE, 2013)
No end group written: not given here.

Key:
[1] = system: αvβ6-dependent adhesion of carcinoma cells to immobilised fibronectin; assay: αvβ6-dependent adhesion to fibronectin (Picogreen adhesion assay); assay type: cell-based; conditions: for inhibition of αvβ6-dependent adhesion to fibronectin: fibronectin 10 ug/ml, 30 min at 37°C, quadruplicate, repeated at least 2-3 times
Description: All adhesion assays were performed in quadruplicate and repeated at least 2–3 times. In a 96-well plate format, test wells were coated with Fibronectin (10 ug/ml/PBS) and negative control wells were coated with 0.1% BSA (bovine serum albumin)/PBS. After incubation at 37°C for 1 hour, plates were washed in PBS twice and blocked with 0.1% BSA/PBS for 30 mins at 37°C. Following a PBS rinse, cells were seeded into the wells, the plate resting on ice to avoid dehydration and to ensure an initial uniform temperature for the experiment. Purified scFv or peptide was added (25 ul) to the wells at the desired concentrations, before adding 1.5×10^4 cells (25 ul) per well. In some experiments, cells (1.5×10^4) were pre-treated with β1 blocking antibody AIIB2 at 10 ug/ml before seeding into test wells to block the β1-dependent fibronectin adhesion. To determine percentage adhesion, standard curves were generated by plating 0–2.5×10^4 cells in separate wells. After incubating plates at 37°C for 30′ plates were washed twice in 1 mM CaCl2/0.5 mM MgCl2/PBS and transferred into −80°C for 15 mins. Adherent cells were quantified using a Picogreen kit (Invitrogen) and analysed on a fluorescence reader (FLUOstar Optima, BMG Labtech Ltd, Bucks, UK).

[2] = system: A375Pβ6 cells (cellular αvβ6); assay: Flow cytometry binding to αvβ6-expressing cells; assay type: cell-based; conditions: for binding to αvβ6-expressing cells: flow cytometry, dose dependent binding analysis, 0.1 or 1 uM, 1 hr on ice, MFI
Description: (§1) The adherent melanoma cell lines A375Pβ6 and A375Ppuro, described previously were cultured in Dulbecco's Modified Eagles' Medium (DMEM) supplemented with 10% Foetal Calf Serum (FCS). The human oral squamous cell carcinoma VB6, which was engineered to express high levels of αvβ6, was grown in Keratinocyte Growth Medium as described.
(§2) Purified scFv were tested for specificity for αvβ6 by flow cytometry using the isogenic pairs of cell lines, A375Pβ6 and A375Ppuro, or DX3β6 and DX3puro. Each pair expresses similar levels of four RGD-binding integrins (αvβ3, αvβ5, αvβ8, α5β1) but only A375Pβ6 and DX3β6 express αvβ6 [14], [22], [30]. Briefly, cells were detached with trypsin/EDTA, rinsed twice in ice-cold wash buffer (0.1% BSA/DMEM/0.1% NaN3) and approximately 2×10^5 cells re-suspended in 50 µl of wash buffer per sample. In between all incubation steps, all samples were washed twice with wash buffer unless otherwise stated. Cells were incubated on ice for 1 hr with 0.1 or 1 uM purified scFv of peptide, washed twice. For scFv, cells were then incubated for 1 hr on ice with mouse anti-Myc antibody (clone 9E10, Santa Cruz) at 1∶100. After washing, bound antibody was detected with anti-mouse IgG-Alexaflour 488 (1∶250 for 1 h; Molecular Probes), on ice. […] Cells were analysed using the FACSCalibur (Beckton Dickinson). Cell expression of αvβ6 integrin was detected with mouse monoclonal antibody (clone 10D5, 10 µg/ml; Millipore) and non-specific (control) binding with non-immune class matched IgG.

A375Ppuro cells = assay: Flow cytometry binding to αvβ6-negative cells; assay type: cell-based; conditions: for binding to αvβ6-negative cells: flow cytometry, A375Ppuro (αvβ3, αvβ5, αvβ8, α5β1 positive), dose dependent binding analysis, 0.1 or 1 uM; for binding to αvβ6-negative cells (Figure S1): biotinylated peptide at 1 uM, A375Ppuro, rabbit anti-biotin IgG then anti-rabbit IgG-Alexafluor 488
Description: as §1, §2
Supplementary file pone.0070452.s001.tif: Figure S1 A375Ppuro cells were incubated with biotinylated D25p or D34p at 1 uM. Bound peptide was detected with rabbit anti-biotin IgG (1∶200), followed by anti-rabbit IgG-Alexafluor 488 (1∶250; Molecular Probes). […] Black histograms represent controls where peptides were omitted. (TIF) Click here for additional data file.

recombinant αvβ6 = assay: Monoclonal scFv screening ELISA / binding to immobilised recombinant αvβ6; conditions: specific binding to recombinant αvβ6, summary statement
Description: Figure 2 Screening of phage clones isolated from the α-helix & 3_10-helix libraries. A) Monoclonal scFv screening ELISA testing 96 clones in each library. Bacterial supernatants were added to 5 µg/ml recombinant αvβ6 immobilized onto ELISA plate and then probed with mouse anti-Myc antibody followed by anti-mouse-HRP. B) Clones with unique sequences were screened for binding cellular αvβ6 by flow cytometry. […] For clarity the relevant αvβ6-specific mouse monoclonal antibody 10D5 (grey) and the negative control IgG (black) histograms are also shown in each plot. […] TEXT PRINTED IN THE PICTURE: (C) D25: 30kDa | (C) D34: 30kDa
The α-helix and 3_10 libraries were each rescued separately KM13 helper phage as described previously. For selection, we used in parallel each library separately as well as mixed alpha helix and 3_10 libraries. The initial phage selection was performed using immobilised recombinant αvβ6 protein as described previously, [29] and http://www.lifesciences.sourcebioscience.com/ media/143421/tomlinsonij.pdf. After two rounds of selection on immobilised αvβ6 we then selected the libraries on cell-expressed αvβ6 using A375Pβ6 and A375PPuro cell lines, for αvβ6-positive and αvβ6-negative selection, respectively, [22]. First line screening were done by ELISA using 5 µg/ml immobilised recombinant αvβ6 as described.

αvβ6-expressing cells = assay: Internalisation assay, αvβ6-expressing cells (confocal microscopy); conditions: for cellular internalisation in αvβ6-expressing cells: scFv 4 uM or biotinylated peptide 100 nM, confocal microscopy; for cellular internalisation in αvβ6-expressing cells / nuclear localisation / time of efficient internalisation: 37°C; for nuclear localisation / time of efficient internalisation: biotinylated peptide 100 nM
αvβ6-negative cells = assay: Internalisation assay, αvβ6-negative cells (confocal microscopy); conditions: scFv 4 uM or biotinylated peptide 100 nM, 37°C
[3] = Size-exclusion chromatography (FPLC) of purified scFv
cellular αvβ6 = assay: Inhibition of A20FMDV2 binding to cellular αvβ6 (flow cytometry); assay type: cell-based; conditions: 0.1 and 1.0 µM, 10 min pre-incubation, 40 min with 10 nM biotinylated A20FMDV2; % of MFI without inhibitor

Substance	inhibition of αvβ6-dependent adhesion to fibronectin [1]	comparison of adhesion inhibition, D25scFv vs D34scFv ([1]; p>0.05)	comparison of binding to cellular αvβ6, D34scFv versus D25scFv ([2]; discussion statement)	binding to αvβ6-expressing cells [2]	binding to cellular αvβ6, flow cytometry verification ([2]; scFv at 100, 10 and 1 µg/ml)	binding to αvβ6-negative cells (A375Ppuro cells)	binding to recombinant αvβ6 (recombinant αvβ6)	cellular internalisation in αvβ6-expressing cells (αvβ6-expressing cells)	cellular localisation at 0 minutes (αvβ6-expressing cells; scFv 4 uM, 0 minutes, αvβ6-expressing cells)	cellular localisation at 45 minutes (αvβ6-expressing cells; scFv 4 uM, 37°C for 45 minutes, αvβ6-expressing cells)	cellular internalisation in αvβ6-negative cells (αvβ6-negative cells)	size-exclusion lower peaks elution volume ([3]; HiPrep 16/60 sephacryl S-200, PBS, 0.3 ml/min, 280 nm, scFv dimers and tetramers)	size-exclusion major peak, apparent molecular weight ([3]; HiPrep 16/60 sephacryl S-200, PBS, calibration curve)	oligomerisation by size-exclusion chromatography ([3]; lower peaks at 45–60 ml, PBS)	inhibition of A20FMDV2 binding to cellular αvβ6 (cellular αvβ6)	comparison of inhibition of αvβ6-cellular function, D25p vs D34p ([1]; discussion statement)	comparison of adhesion inhibition, D25p vs D34p ([1]; p = 0.0156, Wilcoxon matched-pairs signed rank test)	binding to αvβ6-negative cells (Figure S1) (A375Ppuro cells)	nuclear localisation (αvβ6-expressing cells; αvβ6-expressing cells)	time of efficient internalisation (αvβ6-expressing cells; αvβ6-expressing cells)
D25scFv: human scFv clone with synthetic VH-CDR3 encoding RGD α-helix, EP RGDLRTLAAREKRNFNETLAR LQEKGI	significant concentration-dependent inhibition	similarly inhibited	no difference in binding	αvβ6-specific binding to A375Pβ6 cells	Binding to cellular αvβ6	not A375Ppuro	specific binding to recombinant and cellular αvβ6	cellular internalisation in αvβ6-expressing cells	localised at the cell surface	localised within the cell cytoplasm and nucleus	not in αvβ6-negative cells	45 to 60 mL	30 kDa	scFv dimers and tetramers	dose-dependent inhibition	–	–	–	–	–
EP RGDLRTLAAREKRNFNETLAR LQEKGI [D25p, VH-CDR3 derived peptide of D25scFv, 29 amino-acids]	significant concentration-dependent inhibition	–	–	αvβ6-specific binding to A375Pβ6 cells	–	not A375Ppuro	specific binding to recombinant and cellular αvβ6	–	–	–	–	–	–	–	dose-dependent inhibition	more efficient inhibitor of αvβ6-cellular function than D34p	significantly stronger than D34p	–	–	–
QP RGDLRELAARSEAQLQEKGI [D34p, VH-CDR3 derived peptide of D34scFv, 22 amino-acids]	significant concentration-dependent inhibition	–	–	αvβ6-specific binding to A375Pβ6 cells	–	not A375Ppuro	specific binding to recombinant and cellular αvβ6	–	–	–	–	–	–	–	dose-dependent inhibition	–	–	no significant binding	–	–
biotinylated-D25p: biotinylated D25p peptide (EPRGDLRTLAAREKRNFNETLARLQEKGI; also: biotinylated, position not given here)	–	–	–	–	–	–	–	cellular internalisation in αvβ6-expressing cells	–	–	not in αvβ6-negative cells	–	–	–	–	–	–	no significant binding	no nuclear localisation	30 to 45 min
biotinylated-D34p: biotinylated D34p peptide (QPRGDLRELAARSEAQLQEKGI; also: biotinylated, position not given here)	–	–	–	–	–	–	–	cellular internalisation in αvβ6-expressing cells	–	–	not in αvβ6-negative cells	–	–	–	–	–	–	–	no nuclear localisation	30 to 45 min
